Measured values reported in ChEMBL document CHEMBL6092180 (Eur J Med Chem, 2024).
In brackets after ≈: the same amount, converted by molar mass.

Experiments:
Format in all cases: functional
[1] = tested on: Cryptococcus neoformans; test: Antifungal activity against Cryptococcus neoformans CGMCC 2.3161 assessed as inhibition of fungal growth by CLSI M27-A3 guidelines based method
[2] = tested on: Pichia kudriavzevii; test: Antifungal activity against Candida krusei GIM 2.1 assessed as inhibition of fungal growth by CLSI M27-A3 guidelines based method
[3] = tested on: Candida albicans; test: Antifungal activity against Candida albicans SC5314 assessed as inhibition of fungal growth by CLSI M27-A3 guidelines based method
[4] = tested on: Candida tropicalis; test: Antifungal activity against Candida tropicalis GIM 2.183 assessed as inhibition of fungal growth by CLSI M27-A3 guidelines based method
[5] = tested on: Candida albicans; test: Antifungal activity against Candida albicans GIM 2.194 assessed as inhibition of fungal growth by CLSI M27-A3 guidelines based method
[6] = tested on: Candida parapsilosis; test: Antifungal activity against Candida parapsilosis GIM 2.190 assessed as inhibition of fungal growth by CLSI M27-A3 guidelines based method; conditions: Lodderomyces parapsilosis
[7] = tested on: Nakaseomyces glabratus; test: Antifungal activity against Candida glabrata assessed as inhibition of fungal growth by CLSI M27-A3 guidelines based method

MIC80 [1] [µg/mL]	MIC80 [2] [µg/mL]	MIC80 [3] [µg/mL]	MIC80 [4] [µg/mL]	MIC80 [5] [µg/mL]	MIC80 [6] [µg/mL]	MIC80 [7] [µg/mL]	SMILES
0.4 (≈ 0.845 µM)	0.8 (≈ 1.69 µM)	0.2 (≈ 0.422 µM)	0.2 (≈ 0.422 µM)	0.05 (≈ 0.106 µM)	0.05 (≈ 0.106 µM)	3.2 (≈ 6.76 µM)	CN(Cc1ccc(C#Cc2ccc(N)cc2)cc1)CC(O)(Cn1cncn1)c1ccc(F)cc1F (stereo unspecified)
0.006 (≈ 0.0126 µM)	0.01 (≈ 0.021 µM)	0.006 (≈ 0.0126 µM)	0.006 (≈ 0.0126 µM)	0.013 (≈ 0.0273 µM)	0.006 (≈ 0.0126 µM)	0.05 (≈ 0.105 µM)	CN(Cc1ccc(C#Cc2cccc(F)c2)cc1)CC(O)(Cn1cncn1)c1ccc(F)cc1F (stereo unspecified)
0.05 (≈ 0.0972 µM)	0.4 (≈ 0.777 µM)	0.025 (≈ 0.0486 µM)	0.025 (≈ 0.0486 µM)	0.025 (≈ 0.0486 µM)	0.013 (≈ 0.0253 µM)	0.8 (≈ 1.55 µM)	CN(Cc1ccc(C#Cc2ccc(C(C)(C)C)cc2)cc1)CC(O)(Cn1cncn1)c1ccc(F)cc1F (stereo unspecified)
0.05 (≈ 0.0898 µM)	0.8 (≈ 1.44 µM)	0.05 (≈ 0.0898 µM)	0.013 (≈ 0.0234 µM)	0.05 (≈ 0.0898 µM)	0.013 (≈ 0.0234 µM)	0.03 (≈ 0.0539 µM)	C[C@@H](N(C)Cc1ccc(C#Cc2ccc(OC(F)(F)F)cc2)cc1)[C@](O)(Cn1cncn1)c1ccc(F)cc1F
0.013 (≈ 0.0222 µM)	0.03 (≈ 0.0513 µM)	0.006 (≈ 0.0103 µM)	0.013 (≈ 0.0222 µM)	0.006 (≈ 0.0103 µM)	0.006 (≈ 0.0103 µM)	0.01 (≈ 0.0171 µM)	CN(Cc1ccc(C#Cc2ccc(I)cc2)cc1)CC(O)(Cn1cncn1)c1ccc(F)cc1F (stereo unspecified)
0.2 (≈ 0.421 µM)	3.2 (≈ 6.74 µM)	0.013 (≈ 0.0274 µM)	0.025 (≈ 0.0527 µM)	0.025 (≈ 0.0527 µM)	0.025 (≈ 0.0527 µM)	3.2 (≈ 6.74 µM)	CN(Cc1ccc(C#Cc2ccc(O)cc2)cc1)CC(O)(Cn1cncn1)c1ccc(F)cc1F (stereo unspecified)
0.2 (≈ 0.435 µM)	0.2 (≈ 0.435 µM)	0.013 (≈ 0.0283 µM)	0.013 (≈ 0.0283 µM)	0.006 (≈ 0.0131 µM)	0.013 (≈ 0.0283 µM)	0.4 (≈ 0.871 µM)	CN(Cc1ccc(C#Cc2ccncc2)cc1)CC(O)(Cn1cncn1)c1ccc(F)cc1F (stereo unspecified)

More lines, now with the values behind:

SMILES	MIC80 [1] [µg/mL]	MIC80 [2] [µg/mL]	MIC80 [3] [µg/mL]	MIC80 [4] [µg/mL]	MIC80 [5] [µg/mL]	MIC80 [6] [µg/mL]	MIC80 [7] [µg/mL]
CN(Cc1ccc(C#Cc2ccc(Cl)cc2F)cc1)CC(O)(Cn1cncn1)c1ccc(F)cc1F (stereo unspecified)	0.025 (≈ 0.0489 µM)	0.01 (≈ 0.0196 µM)	0.006 (≈ 0.0117 µM)	0.006 (≈ 0.0117 µM)	0.006 (≈ 0.0117 µM)	0.006 (≈ 0.0117 µM)	0.03 (≈ 0.0587 µM)
CN(Cc1ccc(C#Cc2ccc(Cl)c(F)c2)cc1)CC(O)(Cn1cncn1)c1ccc(F)cc1F (stereo unspecified)	0.013 (≈ 0.0254 µM)	0.03 (≈ 0.0587 µM)	0.006 (≈ 0.0117 µM)	0.006 (≈ 0.0117 µM)	0.006 (≈ 0.0117 µM)	0.006 (≈ 0.0117 µM)	0.01 (≈ 0.0196 µM)
CN(Cc1ccc(C#Cc2cc(F)c(Br)cc2F)cc1)CC(O)(Cn1cncn1)c1ccc(F)cc1F (stereo unspecified)	0.025 (≈ 0.0436 µM)	0.03 (≈ 0.0523 µM)	0.006 (≈ 0.0105 µM)	0.006 (≈ 0.0105 µM)	0.006 (≈ 0.0105 µM)	0.006 (≈ 0.0105 µM)	0.03 (≈ 0.0523 µM)
CN(Cc1ccc(C#Cc2ncccn2)cc1)CC(O)(Cn1cncn1)c1ccc(F)cc1F (stereo unspecified)	0.8 (≈ 1.74 µM)	1.6 (≈ 3.47 µM)	0.025 (≈ 0.0543 µM)	0.025 (≈ 0.0543 µM)	0.05 (≈ 0.109 µM)	0.025 (≈ 0.0543 µM)	3.2 (≈ 6.95 µM)
CN(Cc1ccc(C#Cc2cccc(Cl)c2)cc1)CC(O)(Cn1cncn1)c1ccc(F)cc1F (stereo unspecified)	0.013 (≈ 0.0264 µM)	0.01 (≈ 0.0203 µM)	0.013 (≈ 0.0264 µM)	0.013 (≈ 0.0264 µM)	0.006 (≈ 0.0122 µM)	0.006 (≈ 0.0122 µM)	0.2 (≈ 0.406 µM)
Cc1ccccc1C#Cc1ccc(CN(C)CC(O)(Cn2cncn2)c2ccc(F)cc2F)cc1 (stereo unspecified)	0.025 (≈ 0.0529 µM)	0.05 (≈ 0.106 µM)	0.013 (≈ 0.0275 µM)	0.006 (≈ 0.0127 µM)	0.006 (≈ 0.0127 µM)	0.013 (≈ 0.0275 µM)	0.1 (≈ 0.212 µM)
CN(Cc1ccc(C#Cc2ccc([N+](=O)[O-])c(F)c2)cc1)CC(O)(Cn1cncn1)c1ccc(F)cc1F (stereo unspecified)	0.025 (≈ 0.0479 µM)	0.01 (≈ 0.0192 µM)	0.006 (≈ 0.0115 µM)	0.006 (≈ 0.0115 µM)	0.006 (≈ 0.0115 µM)	0.006 (≈ 0.0115 µM)	0.01 (≈ 0.0192 µM)
CN(Cc1ccc(C#Cc2cccc(I)c2)cc1)CC(O)(Cn1cncn1)c1ccc(F)cc1F (stereo unspecified)	0.025 (≈ 0.0428 µM)	3.2 (≈ 5.48 µM)	0.05 (≈ 0.0856 µM)	0.025 (≈ 0.0428 µM)	0.05 (≈ 0.0856 µM)	0.025 (≈ 0.0428 µM)	3.2 (≈ 5.48 µM)
CN(Cc1ccc(C#Cc2ccc(OCc3ccccc3)cc2)cc1)CC(O)(Cn1cncn1)c1ccc(F)cc1F (stereo unspecified)	0.1 (≈ 0.177 µM)	0.1 (≈ 0.177 µM)	0.05 (≈ 0.0886 µM)	0.05 (≈ 0.0886 µM)	0.013 (≈ 0.023 µM)	0.2 (≈ 0.354 µM)	0.1 (≈ 0.177 µM)
CN(Cc1ccc(C#Cc2cccc(Br)c2)cc1)CC(O)(Cn1cncn1)c1ccc(F)cc1F (stereo unspecified)	0.013 (≈ 0.0242 µM)	0.2 (≈ 0.372 µM)	0.025 (≈ 0.0465 µM)	0.013 (≈ 0.0242 µM)	0.006 (≈ 0.0112 µM)	0.006 (≈ 0.0112 µM)	0.8 (≈ 1.49 µM)
CN(Cc1ccc(C#Cc2cc(F)c(Cl)cc2F)cc1)CC(O)(Cn1cncn1)c1ccc(F)cc1F (stereo unspecified)	0.025 (≈ 0.0473 µM)	0.01 (≈ 0.0189 µM)	0.006 (≈ 0.0113 µM)	0.006 (≈ 0.0113 µM)	0.006 (≈ 0.0113 µM)	0.006 (≈ 0.0113 µM)	0.01 (≈ 0.0189 µM)
